Laboratory results reported in patent US20070207119A1, “Histone deacetylase inhibitor enhancement of trail-induced apoptosis” (University of South Florida, priority 2002, published 2007).

Assays:
[1] = test system: FAS mRNA; assay: Multi-probe RNase protection assay, FAS mRNA; type: cell-based, human; settings: SKW 6.4 and Jurkat cells, 100 nM LAQ824, 8 or 16 hours; densitometry, GAPDH mRNA as loading control
Experimental: (§1) FIG. 6 Treatment with LAQ824 increases the mRNA expression of DR4 and DR5, and increases the association of the DR5 gene with the acetylated histone H3 and H4 in chromatin. A. After exposure of SKW 6.4 and Jurkat cells to 100 nM LAQ824 for the indicated time intervals (hours), mRNA expression levels of the indicated genes were determined using a Riboquant Multi-Probe RNase Protection Assay. B. Soluble chromatin was immunoprecipitated with anti-acetylated histone H3 and H4 antibodies. PCR primers for the DR5 promoter were used to amplify the DNA isolated from the immunoprecipitates. PCR products were scanned and quantified. […] The ratio between input DNA and precipitated DNA was calculated for each treatment.
(§2) A RiboQuant Multi-Probe RNase Protection Assay System was used according to the manufacturer's instructions (BD/PharMingen, San Diego, Calif.), and as previously described. […] The remaining probes were resolved on 5% denaturing polyacrylamide gel and analyzed by autoradiography.
(§3) Next, the effect of LAQ824 on the mRNA levels of c-FLIPL, DR5, DR4 and Apo-2L/TRAI, utilizing a multi-probe RNAse protection assay and estimated by densitometry with GAPDH mRNA as the loading control was determined. […] In contrast to the increase in the DR5 and DR4 mRNA levels, exposure to LAQ824 for eight hours inhibited the mRNA level of c-FLIPL by 75%, as determined by an RT-PCR assay (FIG. 7A). […]

[2] = test system: DR4 mRNA; assay: Multi-probe RNase protection assay, DR4 mRNA; type: cell-based, human; settings: only in SKW 6.4 cells, 100 nM LAQ824, 8 or 16 hours
Experimental: as §1, §2, §3

[3] = test system: DR5; assay: Cell-membrane expression of DR5 in primary AML cells, anti-DR5 staining and flow cytometry; type: cell-based, human; settings: primary AML sample, baseline 17.5%
Experimental: FIG. 11 LAQ824 induces histone acetylation, increases DR4 and DR5 levels, as well as down regulates FLIPS and FLIPL in primary AML cells. A. AML cells were treated with LAQ824 at the indicated concentrations for 24 hours. Following this histone protein were isolated, and the Histone H3 acetylation was detected by Western blot analysis using the anti-acetylated Histone H3 antibody. Total cell lysates of the untreated and LAQ824 treated cells were also used for immunoblot analyses of DR5, DR4, FLIPL and FLIPS. β-actin was used as the loading control. B. Bone marrow mononuclear cells from a patient with AML were exposed to 100 or 250 nM of LAQ824 for 24 hours. Following this, cell-membrane expression of DR5 was determined by staining with anti-DR5 antibody and evaluated by flow cytometry. Flow cytometric histograms in panels a to d are from cells treated with: a. Isotype control, b. untreated control cells, c. 100 nM LAQ824 and d. 250 nM LAQ824.
The sensitivity of fresh AML cells procured from patients with relapsed AML to Apo-2L/TRAIL and/or LAQ824-induced apoptosis was next to be determined. […] In every sample evaluated, co-treatment with LAQ824 and Apo-2L/TRAIL induced more apoptosis than treatment with either agent alone. […] Based on the availability adequate sample, we also determined the effect of LAQ824 on the determinants of Apo-2L/TRAIL-induced DISC.

[4] = test system: HDAC activity in the HeLa cell nuclear extracts; settings: LAQ824 5 to 250 nM, previously reported; cited from earlier work
[5] = test system: SKW 6.4 cells; assay: Apoptosis of SKW 6.4 cells, annexin V staining and flow cytometry; type: cell-based, human; settings: 10 to 200 nM LAQ824, 24 hours, less than in Jurkat
Experimental: (§4) FIG. 2 LAQ824 induces accumulation in the G1 phase of the cell cycle and apoptosis. SKW 6.4 (A) and Jurkat (B) cells were treated with the indicated concentration of LAQ824 for 24 hours. Following this, the cell cycle status and the percentage of apoptotic cells were determined by flow cytometry. Values represent mean±SE of 3 experiments. FIG. 8 Treatment LAQ824 enhances Apo-2L/TRAIL induced DISC assembly, DISC activity and apoptosis. A. SKW 6.4 and B. Jurkat cells were treated with LAQ824 and/or Apo-2L/TRAIL at the indicated doses for 24 hours. Following this, the percentage of apoptotic cells was determined by annexin-V staining followed by flow cytometry. Values represent mean±SE of 3 experiments. C. Following treatment of Jurkat cells with LAQ824 (20 nM) and/or Apo-2L/TRAIL (10 ng/ml) for 24 hours, either the total cell lysates were utilized for immunoblot analyses of caspase-8, BID, caspase-3 and PARP, or the cytosolic (S100) fractions of cells were either used for immunoblot analysis of cytochrome (cyt) c, Omi or Smac (D), β-Actin expression was used as the loading control. E. SKW 6.4 cells were treated with 100 nM LAQ824 for 24 hours or 100 ng/ml Apo-2L/TRAIL for 2 hours, or LAQ824 followed by Apo-2L/TRAIL. […]

[6] = test system: DR5 mRNA; assay: Multi-probe RNase protection assay, DR5 mRNA; type: cell-based, human; settings: SKW 6.4 and Jurkat cells, 100 nM LAQ824, 8 or 16 hours; densitometry, GAPDH mRNA as loading control
Experimental: as §1, §2, §3

[7] = test system: Jurkat cells; assay: Apoptosis of Jurkat cells, annexin V staining and flow cytometry; type: cell-based, human
Experimental: as §4

SMILES: O=C(/C=C/c1ccc(CN(CCO)CCc2c[nH]c3ccccc23)cc1)NO [LAQ824]
- increase of mRNA expression of FAS [1]: 1.5 fold
- increase of DR4 mRNA levels [2]: 2.2 fold
- DR5 expression on the cell membrane, % of cells ([3]; 100 nM LAQ824, 24 hours): 33.2%
- DR5 expression on the cell membrane, % of cells ([3]; 250 nM LAQ824, 24 hours): 62.4%
- in vitro HDAC activity [4]: inhibits the in vitro HDAC activity in a dose dependent manner
- induction of apoptosis (annexin V positive) [5]: induced apoptosis in a dose dependent manner
- increase of mRNA expression of DR5 [6]: 2.4 fold
- apoptosis, % of Jurkat cells ([7]; 100 or 200 nM LAQ824, 24 hours, data not shown): more than 90%
- induction of apoptosis (annexin V positive) ([7]; Jurkat cells, 10 to 200 nM LAQ824, 24 hours, more than in SKW 6.4): induced apoptosis in a dose dependent manner
